Experimental findings from patent publication US9365576B2, “Pyrrolopyrrolidinone compounds” (Novartis AG, priority 2012, dated 2016) are described below.

In the test the target is human MDM2 protein (amino acids 2-188) (Homo sapiens (Human), UniProt Q00987). Put plainly: TR-FRET assay, p53-MDM2 Assay 2 (modified). It counts as binding. The following applies: TR-FRET; 0.1 nM MDM2, 0.1 nM Europium labeled streptavidin, Tecan genios Pro reader; read-out: IC50 p53-MDM2 Assay 2. In short, it runs like this:
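IC50 values were curve-fitted from the time-resolved 665/620 nm emission ratio after 340 nm excitation. The assay combined 0.625 nM europium-streptavidin donor with 1.25 nM C-terminally biotinylated MDM2 2–188 (15 min, RT), followed by 15 min with 10 nM Cy5-labeled p53 18–26 acceptor peptide.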
(In TR-FRET formats the signal depends on donor and acceptor labels being close together.)

Sequence of human MDM2 protein (amino acids 2-188) (Q00987 2-188): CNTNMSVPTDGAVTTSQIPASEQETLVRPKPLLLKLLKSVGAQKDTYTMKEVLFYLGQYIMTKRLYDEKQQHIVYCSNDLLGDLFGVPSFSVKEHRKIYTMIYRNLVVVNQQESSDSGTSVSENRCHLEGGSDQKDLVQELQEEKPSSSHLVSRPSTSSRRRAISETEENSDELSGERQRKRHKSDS

As to `COC[C@@H](C)n1c(-c2cnc(OC)nc2OC)cc2c1C(c1ccc(C#N)cc1)N(c1ccc(F)c(Cl)c1)C2=O` (stereo partly drawn) [Example 222, 4-[(R,S)-5-(3-Chloro-4-fluoro-phenyl)-2-(2,4-dimethoxy-pyrimidin-5-yl)-1-((R)-2-methoxy-1-methyl-ethyl)-4-oxo-1,4,5,6-tetrahydro-pyrrolo[3,4-b]pyrrol-6-yl]-benzonitrile], the concentration for half-maximal inhibition (IC50) turned out to be 0.303 nM.
Take `COc1nc(N(C)C)ncc1-c1cc2c(n1C(C)C)C(c1ccc(Cl)cc1)N([C@H]1CC[C@H](O)CC1)C2=O` (stereo partly drawn) [Example 69, 6-(4-Chloro-phenyl)-2-(2-dimethylamino-4-methoxy-pyrimidin-5-yl)-5-(trans-4-hydroxy-cyclohexyl)-1-isopropyl-5,6-dihydro-1H-pyrrolo[3,4-b]pyrrol-4-one]: the 50% inhibitory concentration (IC50) was found to be 0.777 nM.
`COc1nc(N(C)C)ncc1-c1c(C#N)c2c(n1C(C)C)C(c1ccc(Cl)cc1)N(c1cc(Cl)c(=O)n(C)c1)C2=O` (stereo not shown) [Example 164, 5-(5-Chloro-1-methyl-6-oxo-1,6-dihydro-pyridin-3-yl)-6-(4-chloro-phenyl)-2-(2-dimethylamino-4-methoxy-pyrimidin-5-yl)-1-isopropyl-4-oxo-1,4,5,6-tetrahydro-pyrrolo[3,4-b]pyrrole-3-carbonitrile]: the IC50 came out at 0.121 nM.
Turning to `COC[C@@H](C)n1c(-c2cnc(N)nc2OC)cc2c1C(c1ccc(C#N)cc1)N(c1ccc(F)c(Cl)c1)C2=O` (stereo partly shown) [Example 223], the IC50 was 0.631 nM.
In the case of `COc1ncccc1-c1cc2c(n1C(C)C)C(c1ccc(Cl)cc1C)N(c1cccc(Cl)c1F)C2=O` (stereo not shown) [Example 5, 5-(3-Chloro-2-fluoro-phenyl)-6-(4-chloro-2-methyl-phenyl)-1-isopropyl-2-(2-methoxy-pyridin-3-yl)-5,6-dihydro-1H-pyrrolo[3,4-b]pyrrol-4-one] it was 1.7 nM; in that of `COc1ncncc1-c1cc2c(n1C(C)C)C(c1ccc(C#N)cc1)N(c1cc(Cl)c(=O)n(C)c1)C2=O` (stereo not shown) [Example 236, 4-(5-(5-Chloro-1-methyl-6-oxo-1,6-dihydropyridin-3-yl)-1-isopropyl-2-(4-methoxypyrimidin-5-yl)-4-oxo-1,4,5,6-tetrahydropyrrolo[3,4-b]pyrrol-6-yl)benzonitrile], 2.98 nM.
With `COc1ncc(-c2cc3c(n2C(C)C)C(c2ccc(C#N)cc2)N(c2cccc(Cl)c2F)C3=O)c(OC)n1` (stereo not shown) [Example 42, 4-[5-(3-Chloro-2-fluoro-phenyl)-2-(2,4-dimethoxy-pyrimidin-5-yl)-1-isopropyl-4-oxo-1,4,5,6-tetrahydro-pyrrolo[3,4-b]pyrrol-6-yl]-benzonitrile] the figure was 0.246 nM; with `COc1nc(N(C)C)ncc1-c1cc2c(n1C(C)C)C(c1ccc(Cl)cn1)N(c1cccc(Cl)c1F)C2=O` (stereo not shown) [Example 234, 5-(3-Chloro-2-fluorophenyl)-6-(5-chloropyridin-2-yl)-2-(2-(dimethylamino)-4-methoxypyrimidin-5-yl)-1-isopropyl-5,6-dihydropyrrolo[3,4-b]pyrrol-4(1H)-one], 0.657 nM; with `COc1nc(N)ncc1-c1cc2c(n1C(C)C)C(c1ccc(Cl)cc1)N([C@H]1CC[C@H](OC)CC1)C2=O` (stereo partly drawn) [Example 141, 2-(2-Amino-4-methoxy-pyrimidin-5-yl)-6-(4-chloro-phenyl)-1-isopropyl-5-(trans-4-methoxy-cyclohexyl)-5,6-dihydro-1H-pyrrolo[3,4-b]pyrrol-4-one], 6.85 nM.
With `COc1ccc(C(=O)NCCS(C)(=O)=O)cc1-c1cc2c(n1C(C)C)C(c1ccc(Cl)cc1)N(c1cc(Cl)ccc1C)C2=O` (stereo not shown) [Example 36, 3-[5-(5-Chloro-2-methyl-phenyl)-6-(4-chloro-phenyl)-1-isopropyl-4-oxo-1,4,5,6-tetrahydro-pyrrolo[3,4-b]pyrrol-2-yl]-N-(2-methanesulfonyl-ethyl)-4-methoxy-benzamide] the figure was 0.115 nM; with `COc1ncc(-c2cc3c(n2C(C)C)[C@@](C)(c2ccc(Cl)cc2)N(c2cc(Cl)c(=O)n(C)c2)C3=O)c(OC)n1` [Example 163, (R)-5-(5-Chloro-1-methyl-6-oxo-1,6-dihydro-pyridin-3-yl)-6-(4-chloro-phenyl)-2-(2,4-dimethoxy-pyrimidin-5-yl)-1-isopropyl-6-methyl-5,6-dihydro-1H-pyrrolo[3,4-b]pyrrol-4-one], 42.7 nM.
Regarding `COc1ncc(-c2cc3c(n2C(C)C)C(c2ccc(C#N)c(F)c2)N(c2cc(Cl)c[nH]c2=O)C3=O)c(OC)n1` (stereo not shown) [Example 200, 4-[5-(5-Chloro-2-oxo-1,2-dihydro-pyridin-3-yl)-2-(2,4-dimethoxy-pyrimidin-5-yl)-1-isopropyl-4-oxo-1,4,5,6-tetrahydro-pyrrolo[3,4-b]pyrrol-6-yl]-2-fluoro-benzonitrile], the IC50 turned out to be 0.37 nM.
As for `COc1ncc(-c2cc3c(n2C(C)C)C(c2ccc(C#N)cc2)N(c2cc(Cl)c[nH]c2=O)C3=O)c(OC)n1` (stereo not shown) [Example 126, 4-[5-(5-Chloro-2-oxo-1,2-dihydro-pyridin-3-yl)-2-(2,4-dimethoxy-pyrimidin-5-yl)-1-isopropyl-4-oxo-1,4,5,6-tetrahydro-pyrrolo[3,4-b]pyrrol-6-yl]-benzonitrile], the half-maximal inhibitory concentration (IC50) turned out to be 0.779 nM.
With `COc1nc(N(C)C)ncc1-c1cc2c(n1C(C)C)C(c1ccc(Cl)cc1)N(c1cn(C)c(=O)cc1C)C2=O` (stereo not shown) [Example 112, 6-(4-Chloro-phenyl)-2-(2-dimethylamino-4-methoxy-pyrimidin-5-yl)-5-(1,4-dimethyl-6-oxo-1,6-dihydro-pyridin-3-yl)-1-isopropyl-5,6-dihydro-1H-pyrrolo[3,4-b]pyrrol-4-one] the figure was 0.393 nM; with `COc1nc(N)ncc1-c1cc2c(n1C(C)C)C(c1ccc(Cl)cc1)N(c1cc(Cl)ccc1C)C2=O` (stereo not shown) [Example 25, 2-(2-Amino-4-methoxy-pyrimidin-5-yl)-5-(5-chloro-2-methyl-phenyl)-6-(4-chloro-phenyl)-1-isopropyl-5,6-dihydro-1H-pyrrolo[3,4-b]pyrrol-4-one], 0.263 nM; with `CNc1ncc(-c2cc3c(n2C(C)C)C(c2ccc(C#N)cc2)N(c2cc(Cl)c(=O)n(C)c2)C3=O)c(OC)n1` (stereo not shown) [Example 133, 4-[5-(5-Chloro-1-methyl-6-oxo-1,6-dihydro-pyridin-3-yl)-1-isopropyl-2-(4-methoxy-2-methylamino-pyrimidin-5-yl)-4-oxo-1,4,5,6-tetrahydro-pyrrolo[3,4-b]pyrrol-6-yl]-benzonitrile], 0.327 nM.
Consider `CNc1ncc(-c2cc3c(n2C(C)C)C(c2ccc(Cl)cc2)N(c2cc(Cl)ccc2C)C3=O)c(OC)n1` (stereo not shown) [Example 26, 5-(5-Chloro-2-methyl-phenyl)-6-(4-chloro-phenyl)-1-isopropyl-2-(4-methoxy-2-methylamino-pyrimidin-5-yl)-5,6-dihydro-1H-pyrrolo[3,4-b]pyrrol-4-one], for which the IC50 is 0.195 nM.
With `COc1ncc(-c2cc3c(n2C(C)C)[C@@H](c2ccc(C#N)c(F)c2)N(c2cc(Cl)c(=O)n(C)c2)C3=O)c(OC)n1` [Example 238, (R)-4-(5-(5-Chloro-1-methyl-6-oxo-1,6-dihydropyridin-3-yl)-2-(2,4-dimethoxypyrimidin-5-yl)-1-isopropyl-4-oxo-1,4,5,6-tetrahydropyrrolo[3,4-b]pyrrol-6-yl)-2-fluorobenzonitrile] the figure was 126 nM; with `COC[C@@H](C)n1c(-c2cnc(N)nc2OC)cc2c1C(c1ccc(Cl)cc1)N(c1ccc(F)c(Cl)c1)C2=O` (stereo partly drawn) [Example 224, (R,S)-2-(2-Amino-4-methoxy-pyrimidin-5-yl)-5-(3-chloro-4-fluoro-phenyl)-6-(4-chloro-phenyl)-1-((R)-2-methoxy-1-methyl-ethyl)-5,6-dihydro-1H-pyrrolo[3,4-b]pyrrol-4-one], 0.362 nM.
Consider `COc1nc(N)ncc1-c1cc2c(n1C(C)C)C(c1ccc(Cl)cc1)N(c1cc(Cl)ccc1C#N)C2=O` (stereo not shown) [Example 99, 2-[2-(2-Amino-4-methoxy-pyrimidin-5-yl)-6-(4-chloro-phenyl)-1-isopropyl-4-oxo-4,6-dihydro-1H-pyrrolo[3,4-b]pyrrol-5-yl]-4-chloro-benzonitrile], for which the half-maximal inhibitory concentration (IC50) was 1.44 nM.
In the case of `COc1nc(N(C)C)ncc1-c1cc2c(n1C(C)C)C(c1ccc(Cl)cc1)N(C1CCOCC1)C2=O` (stereo not shown) [Example 79, 6-(4-Chloro-phenyl)-2-(2-dimethylamino-4-methoxy-pyrimidin-5-yl)-1-isopropyl-5-(tetrahydro-pyran-4-yl)-5,6-dihydro-1H-pyrrolo[3,4-b]pyrrol-4-one] it was 0.423 nM.
With `COc1ncc(-c2cc3c(n2C(C)C)C(c2ccc(Cl)cc2)N(c2cc(C)cn(C)c2=O)C3=O)c(OC)n1` (stereo not shown) [Example 239, 6-(4-Chlorophenyl-1)-2-(2,4-dimethoxypyrimidin-5-yl)-5-(1,5-dimethyl-2-oxo-1,2-dihydropyridin-3-yl)-1-isopropyl-5,6-dihydropyrrolo[3,4-b]pyrrol-4(1H)-one] the figure was 1.16 nM.
In the case of `COc1cn(C)c(=O)cc1-c1cc2c(n1C(C)C)C(c1ccc(Cl)cc1)N(c1cn(C)nc1C)C2=O` (stereo not shown) [Example 184, 6-(4-Chloro-phenyl)-5-(1,3-dimethyl-1H-pyrazol-4-yl)-1-isopropyl-2-(5-methoxy-1-methyl-2-oxo-1,2-dihydro-pyridin-4-yl)-5,6-dihydro-1H-pyrrolo[3,4-b]pyrrol-4-one] it was 5.6 nM; in that of `COc1nc(N(C)C)ncc1-c1cc2c(n1C(C)C)C(c1ccc(C#N)cc1)N(c1cccc(Cl)c1F)C2=O` (stereo not shown) [Example 94, 4-[5-(3-Chloro-2-fluoro-phenyl)-2-(2-dimethylamino-4-methoxy-pyrimidin-5-yl)-1-isopropyl-4-oxo-1,4,5,6-tetrahydro-pyrrolo[3,4-b]pyrrol-6-yl]-benzonitrile], 0.188 nM; in that of `COc1nc(N(C)C)ncc1-c1cc2c(n1C(C)C)C(c1ccc(Cl)cc1)N(c1cc(Cl)c[nH]c1=O)C2=O` (stereo not shown) [Example 123, 5-(5-Chloro-2-oxo-1,2-dihydro-pyridin-3-yl)-6-(4-chloro-phenyl)-2-(2-dimethylamino-4-methoxy-pyrimidin-5-yl)-1-isopropyl-5,6-dihydro-1H-pyrrolo[3,4-b]pyrrol-4-one], 0.106 nM.

Usually IC50 stands for the concentration at which inhibition is half-maximal.
